Measurements taken from PubChem BioAssay (NCI).
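96-well plates; 48 h exposure; 5 concentrations. Endpoints by linear interpolation between flanking doses. Not reached: highest tested concentration assigned. Abbreviation: GI50, concentration required for 50% inhibition of growth. Definition used: TGI = concentration required for complete inhibition of growth.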 Where a SMILES comes first, the peptide text is derived from it. [ ]: non-standard residue; d: D form. pGlu = O=C1CC[CH](C(=O)O)N1

What was measured:
Assay in all cases: DTP human tumour cell line panel, 48 h
[1] = test system: U251 CNS
[2] = test system: HCT-15 colon
[3] = test system: MDA-MB-435
[4] = test system: COLO 205 colon
[5] = test system: OVCAR-4 ovarian
[6] = test system: MALME-3M melanoma
[7] = test system: HOP-92 NSCLC
[8] = test system: RXF 393 renal
[9] = test system: A498 renal
[10] = test system: SF-539 CNS

| Compound | TGI [1] [µM] | TGI [2] [µM] | TGI [3] [µM] | TGI [4] [µM] | TGI [5] [µM] | TGI [6] [µM] | TGI [7] [µM] | TGI [8] [µM] | TGI [9] [µM] | TGI [10] [µM] | GI50 [1] [µM] | GI50 [8] [µM] | GI50 [2] [µM] | GI50 [3] [µM] | GI50 [9] [µM] | GI50 [10] [µM] | GI50 [6] [µM] | GI50 [7] [µM] | GI50 [4] [µM] |
| --- | --- | --- | --- | --- | --- | --- | --- | --- | --- | --- | --- | --- | --- | --- | --- | --- | --- | --- | --- |
| N#CCSc1c(-c2ccccc2)c(=O)n(-c2ccccc2)c(=S)n1-c1ccccc1 | > 100 | > 100 | > 100 | > 100 | > 100 | > 100 | > 100 | – | – | – | – | – | – | – | – | – | – | – | – |
| CC(NC(=O)C(Cc1cnc[nH]1)NC(=O)C1CCC(=O)N1)C(N)=O (stereo not drawn) ([pGlu]-His-Ala-NH2; configuration not given here) | > 100 | – | > 100 | > 100 | – | > 100 | > 100 | > 100 | – | – | – | – | – | – | – | – | – | – | – |
| CCOC(=O)c1cn(CC)c2cc3c(cc2c1=O)CCS3(=O)=O | > 100 | > 100 | > 100 | – | – | > 100 | > 100 | > 100 | > 100 | > 100 | – | – | – | – | – | – | – | – | – |
| O=C(O)CN(CC(=O)O)Cc1ccn(-c2cccc(-n3ccc(CN(CC(=O)O)CC(=O)O)n3)n2)n1 | > 100 | > 100 | > 100 | > 100 | – | > 100 | > 100 | > 100 | – | > 100 | – | – | – | – | – | – | – | – | – |
| N#CCOc1cccc(C2(N3CC=CCC3)CCCCC2)c1 | > 100 | > 100 | > 100 | > 100 | > 100 | > 100 | – | – | > 100 | > 100 | – | – | – | – | – | – | – | – | – |
| Cc1cc(C)c2c(=N)c3ccccc3n(CCCCCCn3c4ccccc4c(=N)c4c(C)cc(C)nc43)c2n1 | 0.387 | 0.343 | 3.3 | – | 3.01 | 2.68 | 2.94 | 2.54 | 3.12 | 3.01 | – | – | – | – | – | – | – | – | – |
| S=c1nc2sc3c(c2c(Nc2ccc(Br)cc2)[nH]1)CCN(N1CCc2c(sc4nc(=S)[nH]c(Nc5ccc(Br)cc5)c24)C1)C3 | 19 | > 50 | > 50 | > 50 | > 50 | > 50 | – | 42.5 | 31.3 | > 50 | – | – | – | – | – | – | – | – | – |
| Clc1cc(OCC23CC4CC(CC(C4)C2)C3)nc(OCC23CC4CC(CC(C4)C2)C3)n1 | > 100 | > 100 | > 100 | > 100 | > 100 | > 100 | – | > 100 | > 100 | > 100 | – | – | – | – | – | – | – | – | – |
| CCOC(=O)C1C[C@H]2CO[C@H](c3ccccc3)N2C1=O (stereo not given in full) | > 100 | > 100 | > 100 | > 100 | > 100 | > 100 | > 100 | > 100 | – | > 100 | – | – | – | – | – | – | – | – | – |
| CO[C@H]1C[C@H](n2cc(C)c(=O)[nH]c2=O)O[C@@H]1CO | > 100 | > 100 | > 100 | > 100 | > 100 | > 100 | – | > 100 | > 100 | > 100 | – | – | – | – | – | – | – | – | – |
| COc1nc2ccc(CNc3ccc(C(=O)O)cc3)cc2nc1OC | > 10 | > 10 | > 10 | > 10 | > 10 | > 10 | – | > 10 | > 10 | > 10 | – | – | – | – | – | – | – | – | – |
| Cc1c(O)c(=O)ccn1CCc1c[nH]c2ccccc12 | > 100 | > 100 | > 100 | 73.9 | – | 55.4 | 46.5 | – | – | 49.6 | – | – | – | – | – | – | – | – | – |
| CC1C2CC(CC2N)C1(C)C (stereo not given) | > 100 | – | > 100 | > 100 | > 100 | > 100 | > 100 | – | > 100 | > 100 | – | – | – | – | – | – | – | – | – |
| O=C(Cc1ccccc1)N=Nc1c(O)[nH]c2ccccc12 | > 100 | > 100 | > 100 | > 100 | > 100 | > 100 | – | > 100 | 80.4 | > 100 | – | – | – | – | – | – | – | – | – |
| CCOC(=O)C1=CC(C)(C(=O)OCC)Nc2c(nc(SC)n(C)c2=O)N1 (stereo not given) | > 10 | > 10 | > 10 | > 10 | > 10 | > 10 | > 10 | – | > 10 | > 10 | – | – | – | – | – | – | – | – | – |
| Cn1cc(-c2nc(-c3c[nH]c4ccncc34)cs2)c2cc(F)ccc21 | 3.29 | 2.71 | 3.06 | – | – | 3.06 | 3.42 | 3.04 | 3.43 | 3.1 | 1.8 | 1.57 | 1.33 | 1.64 | 1.8 | 1.68 | 1.57 | 1.65 | – |
| COc1ccc2oc(=Nc3ccc(F)cc3)c(C(N)=O)cc2c1 | > 100 | > 100 | > 100 | > 100 | > 100 | > 100 | 95.5 | 37.3 | 58.7 | – | – | – | – | – | – | – | – | – | – |
| COc1cc(/C=C2\N=C(C)N(n3c(-c4ccccc4)nc4ccccc4c3=O)C2=O)cc(OC)c1OC | – | > 100 | > 100 | > 100 | – | > 100 | – | – | > 100 | > 100 | – | – | – | – | – | – | – | – | – |
| COC(=O)c1c(O)ccc2c1c1c(n2Cc2ccccn2)C(=O)c2ccccc2C1=O | > 100 | > 100 | > 100 | 34.3 | – | 89.8 | > 100 | > 100 | > 100 | 42.9 | – | – | – | – | – | – | – | – | – |
| C/C(=N\NC(=O)c1cccnc1)c1cccc(/C(C)=N/NC(=O)c2cccnc2)n1.CC(=O)[O-].CC(=O)[O-].[Zn+2] | > 100 | > 100 | – | > 100 | > 100 | > 79.9 | 6.47 | 36.8 | > 100 | 6.55 | – | – | – | – | > 100 | – | 19.3 | 1.55 | 0.904 |
| COC(=O)[C@@]12OC[C@]34C([C@@H](O)C1O)[C@@]1(C)CC(=O)C(O)=C(C)C1C[C@H]3OC(=O)[C@H](OC(=O)/C=C(/c1ccccc1)C(F)(F)F)[C@H]42 (stereo not given in full) | > 25 | > 25 | – | 21.1 | > 25 | 5.71 | 17.1 | 17.5 | 8.45 | 3.75 | – | – | – | – | – | – | – | – | – |
| Clc1ccc2nc(CC3CCCC3)[nH]c2c1 | 36.5 | 22.9 | 25.9 | 27.9 | 45.8 | 45.1 | 34 | 32.1 | – | 51.7 | – | – | – | – | – | – | – | – | – |
